Measured values as given in patent US9388139B2, “Derivatives of celeboxib, use thereof and preparation thereof” (German University, priority 2011, dated 2016).

Legend:
recombinant human PDE5 = recombinant human PDE5 (Homo sapiens (Human), UniProt O76074); assay: PDE5 inhibition, IMAP fluorescence polarization assay; type: biochemical; conditions: recombinant human PDE5; IC50 determined if inhibition >50% at 50 μM screening dose; read-out: IC50 μM against PDE5
Method: (§1) Compounds according to the present disclosure were tested for their in vitro ability to inhibit recombinant human PDE5, COX1 and COX2 enzymes at screening doses of 50, 100 and 100 μM respectively.
(§2) PDE activity was measured using the IMAP fluorescence polarization assay (Molecular Devices) in which binding of hydrolyzed cyclic nucleotide substrate to immobilized metal coordination complexes increases fluorescence polarization (FP). Tetramethylrhodamine (TAMRA)-cGMP and fluorescein-cAMP were used as substrates, each at final concentration of 50 nmol/L. The PDE assay was done according to the manufacturer's specifications using either whole cell lysates or recombinant enzymes.

[1] = test system: human tumor cell lines of different origins; assay: Tumor cell growth inhibition panel, overall; type: cell-based; conditions: in words; including the adriamycin resistant cell line ADR/NCl-RES
Method: (§3) Thus, compound 12 is able to show broad spectrum tumor cell growth inhibitory activity independent of cyclooxygenase inhibition, whereas PDE5 may be the major contributor to such activity.
(§4) The human tumor cell lines were purchased from the American Type Culture Collection (Mansassas, Va.) and maintained in RPMI-1640+2.0 g/L glucose pH 7.4+5% FBS+4 mM glutamine (complete growth medium), incubated at 37° C. in 5% CO2, and passaged at subconfluent density. The human fetal colon FHC cells were cultured in DMEM:F12 medium supplemented with 10% FBS, cholera toxin (10 ng/mL), 5 μg/ml transferrin, 5 μg/ml insulin, and 100 ng/ml hydrocortisone. The passage number was routinely limited to approximately 20 and morphology monitored with each passage, but no additional authentication of the cell lines was performed.
Cells were plated in 96-well microtiter plates at a density of 5,000 cells per well and allowed to adhere overnight prior to treatment. Cells were treated with a 2-log concentration range of either SS or SBA and incubated for an additional 72 hours. For siRNA assays, cells were transfected in OptiMEM media with 0.5% SureFECT transfection reagent and 200 nmol/L of either negative control or PDE5 siRNA and incubated at 37° C. for 24 h prior to treatment. […]

COX2 = COX2 (Ovis aries (Sheep), UniProt P79208); assay: COX-2 activity, colorimetric assay; type: biochemical, ovine; conditions: screening dose 100 μM; read-out: IC50 μM against COX2
Method: as §1
(§5) COX-1 and COX-2 activities were measured using purified ovine COX-1 and COX-2 with colorimetric assay kits obtained from Cayman Chemical Co. (Ann Arbor, Mich.). The activities of COX-1 and COX-2 were measured after the addition of arachidonic acid and incubation at 25° C. for 5 min by absorbance at 590 nm as specified by the manufacturer.

COX1 = COX1 (Ovis aries (Sheep), UniProt P05979); assay: COX-1 activity, colorimetric assay; type: biochemical, ovine; conditions: screening dose 100 μM; read-out: IC50 μM against COX1
Method: as §1, §5

NCI-H522 = assay: Tumor cell growth inhibition panel; type: cell-based; conditions: Homo sapiens, Lung
Method: as §3, §4
(§6) Cells were plated in 96-well microtiter plates at a density of 5,000 cells per well and allowed to adhere overnight prior to treatment. Cells were treated with a 2-log concentration range of either SS or SBA and incubated for an additional 72 hours. For siRNA assays, cells were transfected in OptiMEM media with 0.5% SureFECT transfection reagent and 200 nmol/L of either negative control or PDE5 siRNA and incubated at 37° C. for 24 h prior to treatment. At the end of the incubation period, relative cell viability was compared to vehicle controls using the Cell Titer Glo Assay (Promega, Madison Wis.), which measures viable cells based on ATP content, according to the manufacturer's specifications.

UACC-257 = assay: Tumor cell growth inhibition panel; type: cell-based; conditions: Homo sapiens, Melanoma
Method: as §3, §4, §6

SKOV-3 = assay: Tumor cell growth inhibition panel; type: cell-based; conditions: Homo sapiens, SK-OV-3, Ovarian
Method: as §3, §4, §6

NCI-H226 = assay: Tumor cell growth inhibition panel; type: cell-based; conditions: Homo sapiens, Lung
Method: as §3, §4, §6

SK-MEL-28 = assay: Tumor cell growth inhibition panel; type: cell-based; conditions: Homo sapiens, Melanoma
Method: as §3, §4, §6

LOX IMV1 = assay: Tumor cell growth inhibition panel; type: cell-based; conditions: Homo sapiens, Melanoma
Method: as §3, §4, §6

SNB-75 = assay: Tumor cell growth inhibition panel; type: cell-based; conditions: Homo sapiens, CNS
Method: as §3, §4, §6

ACHN = assay: Tumor cell growth inhibition panel; type: cell-based; conditions: Homo sapiens, Renal
Method: as §3, §4, §6

K562 = assay: Tumor cell growth inhibition panel; type: cell-based; conditions: Homo sapiens, Hematopoietic
Method: as §3, §4, §6

HCC-2998 = assay: Tumor cell growth inhibition panel; type: cell-based; conditions: Homo sapiens, Colon
Method: as §3, §4, §6

A549 = assay: Tumor cell growth inhibition panel; type: cell-based; conditions: Homo sapiens, Lung
Method: as §3, §4, §6

NCI-ADR/RES = assay: Tumor cell growth inhibition panel; type: cell-based; conditions: Homo sapiens; Other, NCI-ADR/RES (adriamycin resistant)
Method: as §3, §4, §6

SNB-19 = assay: Tumor cell growth inhibition panel; type: cell-based; conditions: Homo sapiens, CNS
Method: as §3, §4, §6

PDE5A = PDE5A (Homo sapiens (Human), UniProt O76074); assay: PDE isozyme selectivity, IMAP assay; type: biochemical
Method: as §2, with “enzymes. FP was measured at excitation, emission wavelengths of either 530,590 nm for TAMRA-cGMP or 485,530 nm for fluorescein-cAMP using a Synergy4 (Biotek) microplate reader.” for “enzymes.”

PDE3A = PDE3A (Homo sapiens (Human), UniProt Q14432); assay: PDE isozyme selectivity, IMAP assay; type: biochemical
Method: as §2, with “enzymes. FP was measured at excitation, emission wavelengths of either 530,590 nm for TAMRA-cGMP or 485,530 nm for fluorescein-cAMP using a Synergy4 (Biotek) microplate reader.” for “enzymes.”

PDE9A = PDE9A (Homo sapiens (Human), UniProt O76083); assay: PDE isozyme selectivity, IMAP assay; type: biochemical; conditions: substrate cGMP
Method: as §2, with “enzymes. FP was measured at excitation, emission wavelengths of either 530,590 nm for TAMRA-cGMP or 485,530 nm for fluorescein-cAMP using a Synergy4 (Biotek) microplate reader.” for “enzymes.”

PDE10 = PDE10 (Homo sapiens (Human), UniProt Q9Y233); assay: PDE isozyme selectivity, IMAP assay; type: biochemical
Method: as §2, with “enzymes. FP was measured at excitation, emission wavelengths of either 530,590 nm for TAMRA-cGMP or 485,530 nm for fluorescein-cAMP using a Synergy4 (Biotek) microplate reader.” for “enzymes.”

PDE1A = PDE1A (Homo sapiens (Human), UniProt P54750); assay: PDE isozyme selectivity, IMAP assay; type: biochemical
Method: as §2, with “enzymes. FP was measured at excitation, emission wavelengths of either 530,590 nm for TAMRA-cGMP or 485,530 nm for fluorescein-cAMP using a Synergy4 (Biotek) microplate reader.” for “enzymes.”

PDE11 = PDE11 (Homo sapiens (Human), UniProt Q9HCR9); assay: PDE isozyme selectivity, IMAP assay; type: biochemical
Method: as §2, with “enzymes. FP was measured at excitation, emission wavelengths of either 530,590 nm for TAMRA-cGMP or 485,530 nm for fluorescein-cAMP using a Synergy4 (Biotek) microplate reader.” for “enzymes.”

PDE3B = PDE3B (Homo sapiens (Human), UniProt Q13370); assay: PDE isozyme selectivity, IMAP assay; type: biochemical
Method: as §2, with “enzymes. FP was measured at excitation, emission wavelengths of either 530,590 nm for TAMRA-cGMP or 485,530 nm for fluorescein-cAMP using a Synergy4 (Biotek) microplate reader.” for “enzymes.”

Sequence of PDE3A (Q14432 whole entry, species assumed): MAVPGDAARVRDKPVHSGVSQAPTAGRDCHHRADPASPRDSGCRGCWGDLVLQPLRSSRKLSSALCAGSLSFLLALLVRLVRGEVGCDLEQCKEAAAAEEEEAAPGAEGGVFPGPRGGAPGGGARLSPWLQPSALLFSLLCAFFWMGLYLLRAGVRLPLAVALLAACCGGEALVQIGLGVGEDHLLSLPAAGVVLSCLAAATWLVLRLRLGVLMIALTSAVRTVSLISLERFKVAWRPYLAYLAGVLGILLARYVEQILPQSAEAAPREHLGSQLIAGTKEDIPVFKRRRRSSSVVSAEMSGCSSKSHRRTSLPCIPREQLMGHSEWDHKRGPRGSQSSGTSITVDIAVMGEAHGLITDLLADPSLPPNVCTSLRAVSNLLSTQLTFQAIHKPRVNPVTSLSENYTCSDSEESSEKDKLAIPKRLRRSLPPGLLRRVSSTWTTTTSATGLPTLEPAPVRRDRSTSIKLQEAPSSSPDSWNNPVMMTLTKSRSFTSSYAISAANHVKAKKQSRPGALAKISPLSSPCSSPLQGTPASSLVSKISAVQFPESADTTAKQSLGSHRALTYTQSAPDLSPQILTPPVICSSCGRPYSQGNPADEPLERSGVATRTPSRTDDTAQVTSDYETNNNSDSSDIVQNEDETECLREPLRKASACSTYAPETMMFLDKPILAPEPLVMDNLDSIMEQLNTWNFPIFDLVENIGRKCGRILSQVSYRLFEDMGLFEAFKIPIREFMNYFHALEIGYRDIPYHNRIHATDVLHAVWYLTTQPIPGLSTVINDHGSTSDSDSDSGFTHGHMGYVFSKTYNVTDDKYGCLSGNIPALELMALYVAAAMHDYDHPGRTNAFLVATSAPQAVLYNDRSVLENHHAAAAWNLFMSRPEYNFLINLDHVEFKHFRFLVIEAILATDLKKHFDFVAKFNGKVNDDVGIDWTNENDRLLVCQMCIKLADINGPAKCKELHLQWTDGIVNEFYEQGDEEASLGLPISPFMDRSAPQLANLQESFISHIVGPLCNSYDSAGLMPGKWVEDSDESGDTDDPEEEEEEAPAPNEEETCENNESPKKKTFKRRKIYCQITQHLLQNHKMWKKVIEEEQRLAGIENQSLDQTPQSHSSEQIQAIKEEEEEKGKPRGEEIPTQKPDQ
Sequence of PDE11 (Q9HCR9 whole entry): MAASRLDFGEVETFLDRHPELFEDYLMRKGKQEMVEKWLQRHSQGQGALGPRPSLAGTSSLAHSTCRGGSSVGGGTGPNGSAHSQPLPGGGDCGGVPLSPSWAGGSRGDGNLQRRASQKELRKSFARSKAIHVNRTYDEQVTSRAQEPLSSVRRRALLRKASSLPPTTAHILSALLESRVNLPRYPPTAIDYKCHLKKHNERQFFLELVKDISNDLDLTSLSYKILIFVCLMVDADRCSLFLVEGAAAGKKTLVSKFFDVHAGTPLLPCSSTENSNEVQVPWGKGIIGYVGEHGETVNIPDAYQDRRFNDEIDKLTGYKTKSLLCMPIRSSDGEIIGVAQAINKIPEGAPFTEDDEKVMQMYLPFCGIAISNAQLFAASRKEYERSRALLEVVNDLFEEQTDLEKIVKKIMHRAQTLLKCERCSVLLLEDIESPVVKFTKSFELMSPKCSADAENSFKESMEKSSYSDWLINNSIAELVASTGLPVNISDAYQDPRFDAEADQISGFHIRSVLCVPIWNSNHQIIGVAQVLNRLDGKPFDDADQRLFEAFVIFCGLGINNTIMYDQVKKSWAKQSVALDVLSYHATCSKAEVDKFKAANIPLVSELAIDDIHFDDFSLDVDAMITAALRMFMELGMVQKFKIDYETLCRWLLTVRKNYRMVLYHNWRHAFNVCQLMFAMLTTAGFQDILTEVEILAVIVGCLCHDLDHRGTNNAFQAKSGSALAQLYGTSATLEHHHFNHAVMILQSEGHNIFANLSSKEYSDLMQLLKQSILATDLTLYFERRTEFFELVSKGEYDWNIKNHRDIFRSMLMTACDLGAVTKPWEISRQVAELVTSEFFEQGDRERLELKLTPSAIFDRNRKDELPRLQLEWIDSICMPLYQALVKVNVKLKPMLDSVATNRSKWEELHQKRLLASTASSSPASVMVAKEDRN
Sequence of PDE1A (P54750 whole entry, species assumed): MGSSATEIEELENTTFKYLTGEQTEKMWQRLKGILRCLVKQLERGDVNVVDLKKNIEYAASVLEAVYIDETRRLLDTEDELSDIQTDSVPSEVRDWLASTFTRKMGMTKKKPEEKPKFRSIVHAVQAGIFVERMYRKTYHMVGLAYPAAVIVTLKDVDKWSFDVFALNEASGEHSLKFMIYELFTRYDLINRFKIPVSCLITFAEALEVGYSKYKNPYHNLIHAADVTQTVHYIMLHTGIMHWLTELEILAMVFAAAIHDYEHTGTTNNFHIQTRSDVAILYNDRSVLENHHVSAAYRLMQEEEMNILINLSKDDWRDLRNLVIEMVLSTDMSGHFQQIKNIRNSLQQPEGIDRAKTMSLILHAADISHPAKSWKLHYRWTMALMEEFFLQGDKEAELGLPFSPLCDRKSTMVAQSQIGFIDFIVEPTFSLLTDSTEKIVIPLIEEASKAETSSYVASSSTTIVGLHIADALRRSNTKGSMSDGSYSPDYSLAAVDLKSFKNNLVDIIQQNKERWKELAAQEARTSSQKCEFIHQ
Sequence of PDE3B (Q13370 whole entry, species assumed): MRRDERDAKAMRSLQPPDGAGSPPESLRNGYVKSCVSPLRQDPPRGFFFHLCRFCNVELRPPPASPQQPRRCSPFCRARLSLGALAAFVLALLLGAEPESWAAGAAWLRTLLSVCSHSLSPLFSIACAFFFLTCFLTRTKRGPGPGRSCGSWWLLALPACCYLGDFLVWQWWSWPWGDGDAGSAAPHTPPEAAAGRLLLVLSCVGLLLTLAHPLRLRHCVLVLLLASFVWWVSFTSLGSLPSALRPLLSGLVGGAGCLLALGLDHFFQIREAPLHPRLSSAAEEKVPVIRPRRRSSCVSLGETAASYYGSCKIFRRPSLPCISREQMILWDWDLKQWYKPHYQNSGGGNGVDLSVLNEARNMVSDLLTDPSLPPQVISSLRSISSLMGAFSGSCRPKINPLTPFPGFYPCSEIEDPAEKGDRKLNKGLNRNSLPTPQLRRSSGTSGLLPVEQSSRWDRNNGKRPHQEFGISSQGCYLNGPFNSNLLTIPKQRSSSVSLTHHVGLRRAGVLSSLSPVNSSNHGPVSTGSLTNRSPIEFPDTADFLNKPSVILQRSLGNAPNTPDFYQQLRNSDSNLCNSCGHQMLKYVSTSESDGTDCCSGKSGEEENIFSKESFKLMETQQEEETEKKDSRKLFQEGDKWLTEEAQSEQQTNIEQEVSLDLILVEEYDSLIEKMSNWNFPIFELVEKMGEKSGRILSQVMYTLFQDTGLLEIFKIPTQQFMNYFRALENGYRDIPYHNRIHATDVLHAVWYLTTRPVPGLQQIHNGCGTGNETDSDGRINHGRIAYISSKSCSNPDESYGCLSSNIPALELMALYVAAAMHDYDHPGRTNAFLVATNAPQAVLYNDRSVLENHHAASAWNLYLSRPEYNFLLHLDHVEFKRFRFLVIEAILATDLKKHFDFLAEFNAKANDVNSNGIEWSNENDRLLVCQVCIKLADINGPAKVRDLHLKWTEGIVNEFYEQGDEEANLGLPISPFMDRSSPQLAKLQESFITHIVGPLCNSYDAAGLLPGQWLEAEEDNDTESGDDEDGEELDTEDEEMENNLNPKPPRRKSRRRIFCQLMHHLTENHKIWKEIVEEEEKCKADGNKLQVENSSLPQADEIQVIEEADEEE
Sequence of PDE10 (Q9Y233 whole entry): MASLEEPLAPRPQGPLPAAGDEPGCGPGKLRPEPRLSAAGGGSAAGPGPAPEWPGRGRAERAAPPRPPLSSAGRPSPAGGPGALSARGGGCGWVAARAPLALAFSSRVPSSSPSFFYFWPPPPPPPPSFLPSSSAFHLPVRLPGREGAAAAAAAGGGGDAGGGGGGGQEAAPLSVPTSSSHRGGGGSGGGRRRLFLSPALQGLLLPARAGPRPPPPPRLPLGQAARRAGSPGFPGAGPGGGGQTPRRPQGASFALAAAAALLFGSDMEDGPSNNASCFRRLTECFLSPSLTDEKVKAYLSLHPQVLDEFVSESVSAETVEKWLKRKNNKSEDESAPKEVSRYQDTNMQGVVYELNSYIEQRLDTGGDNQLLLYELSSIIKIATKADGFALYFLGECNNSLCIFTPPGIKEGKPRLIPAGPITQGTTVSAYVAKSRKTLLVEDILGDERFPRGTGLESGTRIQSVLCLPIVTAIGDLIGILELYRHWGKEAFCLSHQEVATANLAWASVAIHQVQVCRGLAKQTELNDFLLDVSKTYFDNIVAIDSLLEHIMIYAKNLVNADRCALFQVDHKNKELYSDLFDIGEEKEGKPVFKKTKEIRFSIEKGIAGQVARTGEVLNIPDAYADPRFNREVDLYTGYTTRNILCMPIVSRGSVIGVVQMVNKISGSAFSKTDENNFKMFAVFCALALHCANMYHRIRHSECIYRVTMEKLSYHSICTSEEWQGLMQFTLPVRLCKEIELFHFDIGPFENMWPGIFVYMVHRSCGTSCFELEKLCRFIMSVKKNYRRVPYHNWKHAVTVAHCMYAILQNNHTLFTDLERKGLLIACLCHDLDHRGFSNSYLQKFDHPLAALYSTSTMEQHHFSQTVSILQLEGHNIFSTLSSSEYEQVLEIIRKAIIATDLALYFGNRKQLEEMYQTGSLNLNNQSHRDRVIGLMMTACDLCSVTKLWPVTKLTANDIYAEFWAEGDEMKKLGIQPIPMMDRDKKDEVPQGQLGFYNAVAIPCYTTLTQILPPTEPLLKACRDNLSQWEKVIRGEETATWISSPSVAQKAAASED

CC(C)(C)C1=NN(c2ccc(C(=O)O)cc2)C(c2ccc(Cl)cc2Cl)C1 (stereo not drawn) [Compound 12, 4-(3-(tert-Butyl)-5-(2,4-dichlorophenyl)-4,5-dihydro-1H-pyrazol-1-yl)benzoic acid]
IC50 (recombinant human PDE5): 3.7 µM
tumor cell growth inhibitory activity [1]: broad spectrum growth inhibitory activity
IC50 (COX2): > 100 µM
IC50 (COX1): > 100 µM
IC50 (NCI-H522): 50.4 µM
IC50 (UACC-257): 70 µM
IC50 (SKOV-3): 87.4 µM
IC50 (NCI-H226): 56.4 µM
IC50 (SK-MEL-28): 72.4 µM
IC50 (LOX IMV1): 50.5 µM
IC50 (SNB-75): 67.8 µM
IC50 (ACHN): 55.3 µM
IC50 (K562): 33.2 µM
IC50 (HCC-2998): 41.9 µM
IC50 (A549): 58 µM
IC50 (NCI-ADR/RES): 57.2 µM
IC50 (SNB-19): 52.8 µM
IC50 (PDE5A; PDE5A, substrate cGMP): 3.7 µM
selectivity for PDE5 relative to other cGMP degrading PDE isozymes (PDE5A; in words): selective inhibitor for PDE5
IC50 (PDE3A; substrate cAMP): > 50 µM
IC50 (PDE3A; substrate cGMP): > 50 µM
IC50 (PDE9A): > 50 µM
IC50 (PDE10; PDE10, substrate cAMP): > 50 µM
IC50 (PDE10; PDE10, substrate cGMP): > 50 µM
IC50 (PDE1A; substrate cAMP): > 50 µM
IC50 (PDE1A; substrate cGMP): > 50 µM
IC50 (PDE11; PDE11, substrate cAMP): > 50 µM
IC50 (PDE11; PDE11, substrate cGMP): > 50 µM
IC50 (PDE3B; substrate cAMP): > 50 µM
IC50 (PDE3B; substrate cGMP): > 50 µM
